Measured values: publication PMC8344021, “Discovery of Small Molecule Bak Activator for Lung Cancer Therapy” (Theranostics, 2021)

Tested on: A549 cells
Assay: Dynamic BH3 profiling (DBP), mitochondrial priming
Format: cell-based, human
Conditions: 0, 0.25, 0.5, 0.75, 1.0 µM, 16h
Experimental: DBP using Bim peptide was carried out as described previously [24]-[26]. After treatment with BKA-073, venetoclax (ABT-199) or DMSO control for 16h, cells were collected, washed and resuspended at 2 x 10^6 cells/ mL in mannitol experimental buffer (MEB) [150 mM D-mannitol, 10 mM HEPES-KOH (pH 7.5), 50 mM KCl, 20 μM EGTA, 20 μM EDTA, 0.1% BSA, and 5 mM succinate] as described. One volume of the 4x cell suspension was added to one volume of a 4x dye solution containing 4 μM JC-1, […] oligomycin, 0.02% digitonin, 20mM β-mercaptoethanol in MEB. The 2x cell/dye mixture was allowed to rest for 5-10 min at room temperature to allow for permeabilization and JC-1 staining. A total of 15μl of the 2x cell/dye mixture was loaded into a 384-well plate that contained 15µL of Bim BH3 peptide (0.03, 0.1, 0.3, 1, and 3 μM) in MEB, shaken for 15 s inside the reader, and the fluorescence at 590 nm monitored every 5 min for 180 min at 32 °C. The dynamic BH3 profile (∆ % Priming) was calculated as described [24]-[26].
The BH3 death domain is known to be required for the proapoptotic function of Bak. […] The top 500 compounds determined to have the highest affinity for the BH3 domain were obtained from the NCI and tested for cytotoxicity in human lung cancer cells (i.e. H1299, H460 and A549 cells) by sulforhodamine B (SRB) assay for further screening as described, [36]. […]

## COc1ccc2nc3ccccc3c(NCCNCC(C)O)c2c1 (stereo not shown) [BKA-073]
  induction of mitochondrial priming (∆% priming): in a dose-dependent manner
